Patent US10669290B2, “Beta-lactamase inhibitors” (priority 2012, dated 2020)

Assays:
Assay type in all cases: cell-based
E. coli ESBL4 CTX-M-15 = assay: Broth microdilution MIC, E. coli ESBL4; conditions: Escherichia coli, ESBL4CTXM15; fixed ceftazidime 4 μg/mL, CAMHB, 16-20 hours 37° C.; read-out: MIC of exemplary compounds in presence of fixed β-lactams, Fixed CAZ, E. coli ESBL4 CTX-M-15
Source text: (§1) To determine the ability of test compounds to potentiate the inhibition of the growth of bacterial strains that produce beta-lactamase enzymes, classic cell based broth microdilution MIC assays were employed. Six bacteria strains producing beta-lactamase enzymes were used: E. coli expressing the Class A Extended Spectrum Beta-Lactamase (ESBL) CTX-M-15, E. cloacae expressing the Class C P99, K. pneumoniae expressing the Class A carbapenemase KPC-2, P. aeruginosa expressing the Class B carbapenemase VIM-2, K. pneumoniae expressing the class A carbapenemase KPC-2 and the class B carbapenemase VIM-4, and S. aureus producing the Class A penicillinase PC-1. The assay was conducted in Cation Adjusted Mueller Hinton Broth (CAMHB, BD #212322, BD Diagnostic Systems, Sparks, Md.). Bacteria strains were grown for 3-5 hours in CAMBH broth. Test compounds were added to a microtiter plate in 2-fold serial dilutions in CAMHB in a final concentration range of 32 μg/mL to 0.25 μg/ml. An overlay of CAMHB containing a Beta-lactam was added to the compounds at a final static concentration of 4 μg/ml. […] In addition to the titration of test compounds the MICs of a panel of control beta-lactams is also tested to ensure the strains are behaving consistently from test to test. Once the test compound and antibiotics are added the plates can be inoculated according to CLSI broth microdilution method. After inoculation the plates are incubated for 16-20 hours at 37° C. then the Minimal Inhibitory Concentration (MIC) of the test compound is determined visually.
(§2) Using the methodology described above in EXAMPLE III, exemplary compounds for Formula I or Formula Ia were evaluated for their ability to inhibit the growth of β-lactamase producing bacteria in the presence of a β-lactam antibiotic.

E. cl 144200 p99 AmpC = assay: Broth microdilution MIC, E. cloacae 144200; conditions: Enterobacter cloacae; fixed ceftazidime 4 μg/mL, CAMHB, 16-20 hours 37° C.; read-out: MIC of exemplary compounds in presence of fixed β-lactams, Fixed CAZ, E. cl 144200 p99 AmpC
Source text: as §1, §2

S. aureus MSSA-7 PC-1 = assay: Broth microdilution MIC, S. aureus MSSA-7; conditions: Staphylococcus aureus, fixed piperacillin 4 μg/mL, CAMHB, 16-20 hours 37° C., read-out: MIC of exemplary compounds in presence of fixed β-lactams, Fixed Pip, S. aureus MSSA-7 PC-1
Source text: as §1, §2

K.P. A-1797 KPC-2 VIM-4 = assay: Broth microdilution MIC, K. pneumoniae A-1797; conditions: Klebsiella pneumoniae; fixed meropenem 4 μg/mL, CAMHB, 16-20 hours 37° C.; read-out: MIC of exemplary compounds in presence of fixed β-lactams, Fixed Mero, K.P. A-1797 KPC-2 VIM-4
Source text: as §1, §2

K.P. 156319 KPC-3 = assay: Broth microdilution MIC, K. pneumoniae 156319; conditions: Klebsiella pneumoniae; fixed meropenem 4 μg/mL, CAMHB, 16-20 hours 37° C.; read-out: MIC of exemplary compounds in presence of fixed β-lactams, Fixed Mero, K.P. 156319 KPC-3
P. aerug. Ps296 VIM-2 = assay: Broth microdilution MIC, P. aeruginosa Ps296; conditions: Pseudomonas aeruginosa; fixed meropenem 4 μg/mL, CAMHB, 16-20 hours 37° C.; read-out: MIC of exemplary compounds in presence of fixed β-lactams, Fixed Mero, P. aerug. Ps296 VIM-2
Source text: as §1, §2

| Structure (SMILES) | MIC (E. coli ESBL4 CTX-M-15) [µg/mL] | MIC (E. cl 144200 p99 AmpC) [µg/mL] | MIC (S. aureus MSSA-7 PC-1) [µg/mL] | MIC (K.P. A-1797 KPC-2 VIM-4) [µg/mL] | MIC (K.P. 156319 KPC-3) [µg/mL] | MIC (P. aerug. Ps296 VIM-2) [µg/mL] |
| --- | --- | --- | --- | --- | --- | --- |
| NC[C@H]1CC[C@H](CC(=O)N[C@H]2Cc3cccc(C(=O)O)c3OB2O)CC1 [Example 3] | < 4 | < 4 | < 4 | 8 to 32 | < 4 | < 4 |
| N=C(N)N1CCC(CN[C@H]2CC[C@H](CC(=O)N[C@H]3Cc4cccc(C(=O)O)c4OB3O)CC2)CC1 [Example 34, (R)-3-(2-(trans-4-((1-carbamimidoylpiperidin-4-yl)methylamino)cyclohexyl)acetamido)-2-hydroxy-3,4-dihydro-2H-benzo[e][1,2]oxaborinine-8-carboxylic acid] | < 4 | < 4 | < 4 | 8 to 32 | < 4 | < 4 |
| CNCCN[C@H]1CC[C@H](CC(=O)N[C@H]2Cc3cccc(C(=O)O)c3OB2O)CC1 [Example 51, (R)-2-hydroxy-3-(2-(trans-4-(2-(methylamino)ethylamino)cyclohexyl)acetamido)-3,4-dihydro-2H-benzol[e][1,2]oxaborinine-8-carboxylic acid] | < 4 | < 4 | < 4 | < 4 | < 4 | < 4 |
| C[C@H](N)CNCCN[C@H]1CC[C@H](CC(=O)N[C@H]2Cc3cccc(C(=O)O)c3OB2O)CC1 [Example 62, (R)-3-(2-(trans-4-(2-((S)-2-aminopropylamino)ethylamino)cyclohexyl)acetamido)-2-hydroxy-3,4-dihydro-2H-benzo[e][1,2]oxaborinine-8-carboxylic acid] | < 4 | < 4 | < 4 | < 4 | < 4 | 8 to 32 |
| NCCNC1CCC(O)(CC(=O)N[C@H]2Cc3cccc(C(=O)O)c3OB2O)CC1 (stereo partly drawn) [Example 43, 3-{2-[4-(2-Amino-ethylamino)-1-hydroxy-cyclohexyl]-acetylamino}-2-hydroxy-3,4-dihydro-2H-benzo[e][1,2]oxaborinine-8-carboxylic acid] | < 4 | < 4 | < 4 | > 32 | < 4 | < 4 |
| O=C(C[C@H]1CC[C@H](NCCNCC2CC2)CC1)N[C@H]1Cc2cccc(C(=O)O)c2OB1O [Example 74, (R)-3-(2-(trans-4-(2-(cyclopropylmethylamino)ethylamino)cyclohexyl)acetamido)-2-hydroxy-3,4-dihydro-2H-benzo[e][1,2]oxaborinine-8-carboxylic acid] | < 4 | < 4 | < 4 | < 4 | < 4 | < 4 |

The next lines start with the values.

| MIC (E. coli ESBL4 CTX-M-15) [µg/mL] | MIC (E. cl 144200 p99 AmpC) [µg/mL] | MIC (S. aureus MSSA-7 PC-1) [µg/mL] | MIC (K.P. A-1797 KPC-2 VIM-4) [µg/mL] | MIC (K.P. 156319 KPC-3) [µg/mL] | MIC (P. aerug. Ps296 VIM-2) [µg/mL] | Structure (SMILES) |
| --- | --- | --- | --- | --- | --- | --- |
| < 4 | < 4 | < 4 | > 32 | < 4 | 8 to 32 | O=C(O)CN[C@H]1CC[C@H](CC(=O)N[C@H]2Cc3cccc(C(=O)O)c3OB2O)CC1 [Example 28, (R)-3-(2-(trans-4-(carboxymethylamino)cyclohexyl)acetamido)-2-hydroxy-3,4-dihydro-2H-benzo[e][1,2]oxaborinine-8-carboxylic acid] |
| < 4 | < 4 | < 4 | 8 to 32 | < 4 | 8 to 32 | O=C(C[C@H]1CC[C@H](NCc2cccnc2)CC1)N[C@H]1Cc2cccc(C(=O)O)c2OB1O [Example 27, (R)-2-hydroxy-3-(2-(trans-4-(pyridin-3-ylmethylamino)cyclohexyl)acetamido)-3,4-dihydro-2H-benzo[e][1,2]oxaborinine-8-carboxylic acid] |
| < 4 | < 4 | < 4 | < 4 | < 4 | < 4 | CCNCCN[C@H]1CC[C@H](CC(=O)N[C@H]2Cc3cccc(C(=O)O)c3OB2O)CC1 [Example 78, (R)-3-(2-(trans-4-(2-(ethylamino)ethylamino)cyclohexyl)acetamido)-2-hydroxy-3,4-dihydro-2H-benzo[e][1,2]oxaborinine-8-carboxylic acid] |
